The test has as its system Botrytis cinerea. Kind of test: Mycelial growth inhibition of B. cinerea, radial growth method in PDA. Type of test: cell-based. The note with it: for inhibition at 50 ppm / inhibition at 150 ppm / inhibition at 250 ppm: Botrytis cinerea; for Activity compared with the positive control when encapsulated in Pluronic F-127 micelle (in words): encapsulated in polymeric Pluronic F-127 micelle. Here is the method: 20-40 milligrams of each of compounds 1 to 8 were dissolved in 500 microliters of Ethanol to have a stock solution of each compound according to its molecular weight. The stock solution was diluted in 5 mL of water so as to obtain a new stock solution of 5,000 ppm; from which corresponding aliquots were taken to achieve a final concentration on each plate with 50, 150 and 250 ppm potato dextrose agar (PDA) culture medium.
The method used for the preparation of polymeric micelles, based on Polycaprolactone (MW: 3.409 g/mol) or Pluronic® F-127 (MW: 12,500 g/mol) corresponds to the direct dissolution method consisting of the addition of the polymer to water with stirring and at room temperature, until the polymer dissolves to give a clear aqueous solution. The amount of polymer and water is chosen so as to have a solution of a concentration of 1×10^−3 M of polymer chains.
For the preparation of a solution of 50 mL of Pluronic F-127, 0.63 g is used and for the case of polycaprolactone 0.17 g is used.
The physical encapsulation of the compounds in the polymeric micelles (1×10^−3 M) is carried out by the emulsion method. The compound is dissolved in a volatile solvent (dichloromethane) and […] the polymer solution added in 100 μL aliquots to complete 400 μL reaching a concentration of 0.101 M of compound. By stirring in a vortex and applying ultrasound a very homogeneous milky emulsion is formed. The organic solvent is then removed by evaporation by heating the emulsion at 50° C. in a system open to air. Upon removal of the solvent, a clear solution remains containing the polymer forming micelles and the non-polar compounds which have been encapsulated in the hydrophobic micro-domain provided by the core of these polymeric micelles.
Subsequently, the solution is diluted by adding polymer solution corresponding to a 1×10^−3 M concentration until the compound of interest reaches a stock concentration in the range of 625-1,250 ppm in the micelle to be applied to the plate. This dilution should be done by adding polymer solution so as to maintain the same concentration of micelles and vary only the concentration of active ingredient.
In order to determine the inhibition of mycelial growth of B. cinerea, both for the free state and encapsulated compounds, the radial growth method in potato dextrose agar (PDA) culture medium was used. The compounds of interest in both free and encapsulated form were added to the PDA at different concentrations of 50, 150 and 250 ppm at a temperature of 50° C. Once the PDA had been solidified, a 4-mm diameter disc was seeded with mycelium of the pathogen in the center of the petri dish. The experiment consists of a negative control which is a petri dish where PDA culture medium and 1% Ethanol were added, in the case of Negative Control for encapsulated compounds it consists in adding only the micelle (polycaprolactone or Pluronic […]) free in PDA. In addition, a positive control containing commercially available fungicide Captan in PDA culture medium is included at the same concentrations tested in both its free form and also a positive control of Captan in its encapsulated form. Each treatment consisted of three replicates (n=3 replicates/compound/concentration).
After 48 (free state) and 72 (encapsulated system) hours of incubation at 23° C. under a photoperiod of 16 light hours/8 darkness hours, the mycelial growth inhibition percentage (MGIP) was calculated by assessing the measurement of the diameter of the fungus growth around the disc to calculate the mycelial growth inhibition area. In this way, the mycelial growth inhibition percentage that was compared to the corresponding controls after 48 hours of incubation was determined.

The mark [1] stands for this setting: 48 h, read-out: Mycelial inhibition percentage of Botrityscinerea in vitro, free compound, 50 ppm in PDA, 48 hours of incubation.
[2] abbreviates: 48 h, read-out: Mycelial inhibition percentage of Botrityscinerea in vitro, free compound, 150 ppm in PDA, 48 hours of incubation.
The mark [3] stands for this setting: 48 h, read-out: Mycelial inhibition percentage of Botrityscinerea in vitro, free compound, 250 ppm in PDA, 48 hours of incubation.
Where [4] appears, read: 72 h, read-out: Mycelial inhibition percentage of Botrityscinerea in vitro, encapsulated in Polycaprolactone (Diblock) micelles, 50 ppm, 72 hours.
Where [5] appears, read: 72 h, read-out: Mycelial inhibition percentage of Botrityscinerea in vitro, encapsulated in Polycaprolactone (Diblock) micelles, 150 ppm, 72 hours.
The mark [6] stands for this setting: 72 h, read-out: Mycelial inhibition percentage of Botrityscinerea in vitro, encapsulated in Polycaprolactone (Diblock) micelles, 250 ppm, 72 hours.
The mark [7] stands for this setting: 72 h, read-out: Mycelial inhibition percentage of Botrityscinerea in vitro, encapsulated in Pluronic F-127 (Triblock) micelles, 50 ppm, 72 hours.
Where [8] appears, read: 72 h, read-out: Mycelial inhibition percentage of Botrityscinerea in vitro, encapsulated in Pluronic F-127 (Triblock) micelles, 150 ppm, 72 hours.
[9] abbreviates: 72 h, read-out: Mycelial inhibition percentage of Botrityscinerea in vitro, encapsulated in Pluronic F-127 (Triblock) micelles, 250 ppm, 72 hours.
[10] abbreviates: encapsulated in Pluronic F-127 (Triblock) micelles, 50 ppm, 72 hours.

From US10524469B2, “Acetate derived compounds from geranylorcinol. synthesis process for obtaining said compounds and use of said compounds as antifungal against Botrytis cinerea” (UNIVERSIDAD TÉCNICA FEDERICO SANTA MARÍA, priority 2015, dated 2020) come the findings set out here.

Where two headings read alike, the source gives them in different places.

The term inhibition denotes the change of the read-out against control, counted positive when it falls. On to `CC(=O)Oc1cc(C)c(C/C=C(\C)CCC=C(C)C)c(OC(C)=O)c1` [Formula 5], for which the inhibition at 50 ppm worked out at 16% (encapsulated in Polycaprolactone (Diblock) micelles, 50 ppm, 72 hours, read-out: Mycelial inhibition percentage of Botrityscinerea in vitro) and 24% (free compound, 50 ppm in PDA, 48 hours of incubation, read-out: Mycelial inhibition percentage of Botrityscinerea in vitro). Also, the inhibition at 150 ppm runs as follows: (encapsulated in Polycaprolactone (Diblock) micelles, 150 ppm, 72 hours, read-out: Mycelial inhibition percentage of Botrityscinerea in vitro) 39%; (free compound, 150 ppm in PDA, 48 hours of incubation, read-out: Mycelial inhibition percentage of Botrityscinerea in vitro) 55%. The inhibition at 250 ppm is 80% (encapsulated in Polycaprolactone (Diblock) micelles, 250 ppm, 72 hours, read-out: Mycelial inhibition percentage of Botrityscinerea in vitro) and 78% (free compound, 250 ppm in PDA, 48 hours of incubation, read-out: Mycelial inhibition percentage of Botrityscinerea in vitro).

On to `CC(=O)Oc1cc(C)cc(OC(C)=O)c1C/C=C(\C)CCC=C(C)C` [Formula 7], for which the inhibition at 50 ppm by setting is: under setting [1], 8%; under setting [4], 32%. The inhibition at 150 ppm by setting is: under setting [2], 51%; under setting [5], 35%. For the same compound, the inhibition at 250 ppm worked out at 82% under setting [3] and 59% under setting [6].

As for `CC(=O)Oc1cc(C)c(C/C=C(\C)CCC=C(C)C)c(OC(C)=O)c1C/C=C(\C)CCC=C(C)C` [Formula 6], the “Activity compared with the positive control when encapsulated in Pluronic F-127 micelle (in words)” value is listed as “equal to the activity of the positive control”. In addition, the inhibition at 50 ppm under setting [1] turned out to be 5%. Besides, the inhibition at 150 ppm under setting [2] was 69%. For the same compound, the inhibition at 250 ppm under setting [3] worked out at 97%. Under setting [7], the inhibition at 50 ppm was in the range of 81 to 99%. The inhibition at 150 ppm under setting [8] turned out to be 99%. The inhibition at 250 ppm under setting [9] was found to be 99%. Under setting [4], the inhibition at 50 ppm is 10%. Further, the inhibition at 150 ppm under setting [5] was determined as 31%. The inhibition at 250 ppm under setting [6] is 50%. The “Mycelial inhibition percentage of Botrityscinerea in vitro” value (from here on “Mycelial inhibition percentage”) under setting [10] is on record as 93%.

As to `CC(=O)Oc1cc(OC(C)=O)c(C/C=C(\C)CCC=C(C)C)c(C)c1C/C=C(\C)CCC=C(C)C` [Formula 8], the “Activity compared with the positive control when encapsulated in Pluronic F-127 micelle (in words)” value was “equal to the activity of the positive control”. In addition, the inhibition at 50 ppm under setting [1] is 11%. In addition, under setting [2], the inhibition at 150 ppm was 54%. Under setting [3], the inhibition at 250 ppm came out at 85%. Moreover, the inhibition at 50 ppm under setting [7] was 81 to 99%. Further, under setting [8], the inhibition at 150 ppm was 99%. The inhibition at 250 ppm under setting [9] is 99%. Besides, the inhibition at 50 ppm under setting [4] came out at 0%. For the same compound, the inhibition at 150 ppm under setting [5] was 36%. In addition, the inhibition at 250 ppm under setting [6] is 36%. Also, the “Mycelial inhibition percentage” value under setting [10] was 93%.

For the compound `CC(C)=CCC/C(C)=C/Cc1c(C)cc(O)cc1O` [Formula 1], the “Effect on the mycelium of the pathogen when encapsulated in polycaprolactone micelles (in words)” value is listed as “slightly improved”. For the same compound, the inhibition at 50 ppm under setting [1] was determined as 0%. The inhibition at 150 ppm under setting [2] came to 25%. Moreover, under setting [3], the inhibition at 250 ppm is 75%. Also, the inhibition at 50 ppm under setting [4] is 37%. Further, the inhibition at 150 ppm under setting [5] is 61%. In addition, the inhibition at 250 ppm under setting [6] worked out at 73%.

For `CC(C)=CCC/C(C)=C/Cc1c(O)cc(C)cc1O` [Formula 3], the “Effect on the mycelium of the pathogen when encapsulated in polycaprolactone micelles (in words)” value is “inactive”. In addition, the inhibition at 50 ppm under setting [1] came out at 37%. Moreover, under setting [2], the inhibition at 150 ppm was 65%. The inhibition at 250 ppm under setting [3] amounted to 82%. For the same compound, the inhibition at 50 ppm under setting [4] was 9%. For the same compound, the inhibition at 150 ppm under setting [5] came to 32%. Further, the inhibition at 250 ppm under setting [6] was 42%.

With `CC(C)=CCC/C(C)=C/Cc1c(C)cc(O)c(C/C=C(\C)CCC=C(C)C)c1O` [Formula 2], the “Activity compared with the positive control when encapsulated in Pluronic F-127 micelle (in words)” value was “equal to the activity of the positive control”. Moreover, under setting [1], the inhibition at 50 ppm worked out at 25%. In addition, the inhibition at 150 ppm under setting [2] worked out at 61%. Besides, the inhibition at 250 ppm under setting [3] stood at 93%. The inhibition at 50 ppm under setting [7] fell in the range of 81 to 99%. Further, the inhibition at 150 ppm under setting [8] worked out at 91%. Moreover, the inhibition at 250 ppm under setting [9] turned out to be 96%. The inhibition at 50 ppm under setting [4] was found to be 16%. Moreover, the inhibition at 150 ppm under setting [5] is 36%. Moreover, the inhibition at 250 ppm under setting [6] was determined as 37%. For the same compound, the “Mycelial inhibition percentage” value under setting [10] was 85%.

`O=C1C2CC=CCC2C(=O)N1SC(Cl)(Cl)Cl` (stereo not shown) [C+ (positive control), Captan, reference compound]: the “Mycelial inhibition percentage” value by setting is: under setting [10], 98%; (encapsulated in Pluronic F-127 (Triblock) micelles, 150 ppm, 72 hours) 99%; (encapsulated in Pluronic F-127 (Triblock) micelles, 250 ppm, 72 hours) 99%; (encapsulated in Polycaprolactone (Diblock) micelles, 50 ppm, 72 hours) 93%; (encapsulated in Polycaprolactone (Diblock) micelles, 150 ppm, 72 hours) 99%; (encapsulated in Polycaprolactone (Diblock) micelles, 250 ppm, 72 hours) 99%. Besides, the “Mycelial inhibition percentage” value by setting is: (free compound, 50 ppm in PDA, 48 hours of incubation) 87%; (free compound, 150 ppm in PDA, 48 hours of incubation) 94%; (free compound, 250 ppm in PDA, 48 hours of incubation) 94%.

For `CC(C)=CCC/C(C)=C/Cc1c(O)cc(O)c(C/C=C(\C)CCC=C(C)C)c1C` [Formula 4], the “Activity compared with the positive control when encapsulated in Pluronic F-127 micelle (in words)” value was “equal to the activity of the positive control”. For the same compound, the inhibition at 50 ppm under setting [1] stood at 12%. Moreover, the inhibition at 150 ppm under setting [2] was determined as 56%. In addition, the inhibition at 250 ppm under setting [3] came out at 83%. In addition, the inhibition at 50 ppm under setting [7] lay in the range of 81 to 99%. Besides, the inhibition at 150 ppm under setting [8] came to 92%. In addition, the inhibition at 250 ppm under setting [9] came out at 96%. Besides, the inhibition at 50 ppm under setting [4] worked out at 93%. Besides, under setting [5], the inhibition at 150 ppm is 94%. The inhibition at 250 ppm under setting [6] was found to be 97%. Besides, the “Mycelial inhibition percentage” value under setting [10] amounted to 82%.
